Format in all cases: functional
For one test, the system named is Spodoptera littoralis. Kind of test: Insecticidal activity against third to fourth instar larvae Spodoptera littoralis in broad bean plant assessed as mortality rate at 25 mg/L (reference value: 33.3%).
The test system of the next test is Bemisia tabaci. Kind of test: Insecticidal activity against Bemisia tabaci (sweet potato whitefly) in cucumber plant assessed as mortality rate at 25 mg/L relative to control.
The subject of test [1] is Macrosteles quadripunctulatus. Nature of the test: Insecticidal activity against third to fourth-instar nymphs stage Macrosteles quadripunctulatus assessed as mortality rate at 25 mg/L (reference value: 11.4%).

As to `C/C=C(\C)C(=O)O[C@H]1C[C@@H](OC(C)=O)[C@@]2(C(=O)OC)CO[C@H]3[C@@H](O)[C@@](C)([C@]45O[C@@]4(C)[C@@H]4C[C@H]5O[C@@H]5OC=C[C@@]54O)[C@H]4[C@]1(CO[C@]4(O)C(=O)OC)[C@@H]32` [AZADIRACHTIN A], the mortality (commonly the share of the test organisms that died) at 25 µg/mL was 83.5% in the test on Spodoptera littoralis, 82.8% in the test on Bemisia tabaci and 30% in test [1].
In the same order, the values of `C/C=C(\C)C(=O)O[C@H]1C[C@@H](OC(C)=O)[C@@]2(C(=O)OC)CO[C@H]3[C@@H](O)[C@@](C)([C@]45O[C@@]4(C)[C@H]4C[C@@H]5O[C@@H]5OC=C[C@@]54O)[C@H]4[C@]1(CO[C@]4(O)C(=O)OC)[C@@H]32` [AZADIRACTIN] are 100%, 94.1% and 85.7%.

The values are drawn from ChEMBL document CHEMBL3046960, “Are traditional neem extract preparations as efficient as a commercial formulation of azadirachtin A?” (2011).
